Assay results taken from patent US4794122A, “Novel benzimidazolyl-thiomethyl-benzothiazoles” (Uclaf; Roussel, priority 1986, dated 1988).

biological target: T1, 5-lipoxygenase (Rattus norvegicus, UniProt P12527); assay: Inhibition of Ca++ ionophore (A23187)-induced release of 5-lipoxygenase products (leukotriene B4 and 5-HETE) from [14C]-arachidonic acid prelabelled rat peritoneal neutrophils; type: cell-based; details: A23187-induced release of leukotriene B4 and 5-HETE, determined graphically from dose response curves, read-out: micro molecular concentration of the compounds causing a 50% inhibition of the control response for 5-lipoxygenase
T1 construct: prelabelled rat peritoneal neutrophils; endogenous in cells; host or cells: rat peritoneal neutrophils
T1 sequence (P12527 1-673): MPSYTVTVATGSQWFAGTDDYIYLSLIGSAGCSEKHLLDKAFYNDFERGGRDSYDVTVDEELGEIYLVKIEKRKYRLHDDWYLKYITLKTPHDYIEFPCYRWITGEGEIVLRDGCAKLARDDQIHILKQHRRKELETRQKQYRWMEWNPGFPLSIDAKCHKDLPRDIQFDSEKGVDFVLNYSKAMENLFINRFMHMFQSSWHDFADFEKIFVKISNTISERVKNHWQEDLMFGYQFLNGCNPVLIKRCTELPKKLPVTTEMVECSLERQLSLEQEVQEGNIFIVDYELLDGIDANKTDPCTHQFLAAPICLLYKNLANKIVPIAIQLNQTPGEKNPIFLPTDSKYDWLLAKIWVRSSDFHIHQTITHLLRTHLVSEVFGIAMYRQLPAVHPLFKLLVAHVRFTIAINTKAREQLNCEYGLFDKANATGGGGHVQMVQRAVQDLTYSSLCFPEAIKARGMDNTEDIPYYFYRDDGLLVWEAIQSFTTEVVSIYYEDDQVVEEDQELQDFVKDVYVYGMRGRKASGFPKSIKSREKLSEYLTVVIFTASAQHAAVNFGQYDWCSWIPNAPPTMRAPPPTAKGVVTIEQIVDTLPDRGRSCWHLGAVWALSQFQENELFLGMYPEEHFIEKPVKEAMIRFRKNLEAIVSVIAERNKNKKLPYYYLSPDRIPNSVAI
Procedure: Inhibition of Ca^++ ionophore (A23187)-induced release of 5-lipoxygenase products (leukotriene B4 and 5-HETE) from [^14 C]-arachidonic acid prelabelled rat peritoneal neutrophils was determined by a modification of the method of Ahnfelt-Ronne et al [Biochemical Pharmacology, Vol. 31, (1982), No. 16, p. 2619-2624].

Row | SMILES | IC50 [µM]
1 | c1ccc2[nH]c(SCc3nc4ccccc4s3)nc2c1 [Example 1, 2-(1H-benzimidazol-2-yl-thiomethyl)-benzothiazole] | 3.5
2 | Clc1ccc2[nH]c(SCc3nc4ccccc4s3)nc2c1 [Example 2, 2-(5-chloro-1H-benzimidazol-2-yl-thiomethyl)benzothiazole] | 0.59
3 | Clc1cc2nc(SCc3nc4ccccc4s3)[nH]c2cc1Cl [Example 3, 2-(5,6-dichloro-1H-benzimidazol-2-yl-thiomethyl)benzothiazole] | 0.23
